# Experimental data: patent publication US20250009763A1, “METHODS FOR EXTENDING LIFESPAN AND/OR DELAYING AGING” (priority 2023, published 2025)
# Columns and labels:
# [1] = tested on: sir2Δfob1Δ mutant strain of yeast; test: RLS of sir2Δfob1Δ double deletion strain; type: cell-based, Saccharomyces cerevisiae; settings: 25 μM; FIG. 2A
# Description: The micromanipulation of the yeast cells was carried out as follows. Prior to analysis, yeast strains BY4741 (WT), BY4741-fob1Δ (fob1Δ), or BY4741-sir2Δfob1Δ (sir2Δfob1Δ) were plated onto fresh solid YEPD medium and grown at 30° C. for two days. Then, individual colonies were picked and grown in solid YEPD media containing: (1) dimethyl sulfoxide (DMSO), (2) 10, 25, or 50 μM PN6, or (3) 25 μM β-sitosterol at 30° C. overnight, and a small number of yeast cells were then plated onto a fresh YEPD plate for lifespan analysis. After overnight growth on the lifespan plates, the cells were arrayed on the plate using a micromanipulator and allowed to grow for approximately 3 hours. Virgin daughter cells were selected and subjected to lifespan analysis. In the lifespan experiments, the plates were incubated at 30° C. during the day and stored at 4° C. overnight. Each experiment consisted of more than 50 mother cells and was independently repeated three times.
# yeast MEP strain ZHY2 = test: Mother enrichment program (MEP) assay; type: cell-based, Saccharomyces cerevisiae; settings: 0-100 μM PN6, particularly above 10 μM; FIGS. 1A-1D
# Description: The MEP strain ZHY2 cells were cultured at 30° C. overnight in liquid yeast 5 extract peptone dextrose (YEPD) medium containing 0, 0.1, 0.5, 2, 10, 25, 50, or 100 μM PN6, and the cultures were diluted to A600=0.25 and recovered to the log phase. Cultures were counted and inoculated in culture tubes at a cell density of 2×10^3 cells/ml. Estradiol was added to the mixtures to achieve a final concentration of 1 μM, and the mixtures were incubated in a roller drum at 50 rpm and 30° C. for 60 hours. Each group was monitored by harvesting samples at the indicated time points. The collected samples were washed and plated in solid YEPD media without estradiol, and the viability is reported as CFUs per 500 μl. The software OpenCFU 3.8 was used to calculate colonies.
# SIR2/SIRT1 = target: T1, SIR2/SIRT1 (Homo sapiens, UniProt Q96EB6); test: SIR2/SIRT1 activity assay (SIRT1 fluorometric drug discovery kit); type: biochemical; settings: SIRT1 activity assay kit; FIG. 2K
# T1 construct: purchased Enzo Life Sciences, Inc
# T1 sequence (Q96EB6 2-747 limits assumed): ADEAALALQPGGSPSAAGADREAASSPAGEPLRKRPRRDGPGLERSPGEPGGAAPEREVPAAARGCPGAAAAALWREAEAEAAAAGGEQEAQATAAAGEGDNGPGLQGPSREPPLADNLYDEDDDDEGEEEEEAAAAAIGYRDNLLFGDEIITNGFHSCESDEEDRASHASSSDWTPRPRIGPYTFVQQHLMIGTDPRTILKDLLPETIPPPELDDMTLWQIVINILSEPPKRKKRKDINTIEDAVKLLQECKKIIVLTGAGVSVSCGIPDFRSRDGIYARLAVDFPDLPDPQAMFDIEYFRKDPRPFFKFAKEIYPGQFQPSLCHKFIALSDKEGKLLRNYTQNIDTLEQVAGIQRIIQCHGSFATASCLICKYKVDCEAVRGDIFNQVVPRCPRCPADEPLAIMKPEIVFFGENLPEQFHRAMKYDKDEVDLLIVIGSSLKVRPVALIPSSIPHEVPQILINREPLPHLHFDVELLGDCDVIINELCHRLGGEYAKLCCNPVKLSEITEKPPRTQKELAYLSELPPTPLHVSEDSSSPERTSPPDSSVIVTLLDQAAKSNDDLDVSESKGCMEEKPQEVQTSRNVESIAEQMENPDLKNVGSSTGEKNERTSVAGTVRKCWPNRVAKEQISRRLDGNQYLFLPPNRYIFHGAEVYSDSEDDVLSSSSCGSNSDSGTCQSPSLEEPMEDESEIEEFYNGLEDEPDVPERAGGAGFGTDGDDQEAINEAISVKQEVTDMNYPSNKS
# Description: The activity of SIR2/SIRT1 was assessed using a SIRT1 fluorometric drug discovery kit (Enzo Life Sciences, Inc.), in accordance with the manufacturer's instructions. Fluorescence was excited at 360 nm and emitted at 460 nm.
# HUVECs = test: Population doubling (PD) assay; type: cell-based, human; settings: 1 or 2 μM; FIG. 3A
# Description: (§1) For the population doubling (PD) assay, HUVECs (1×10^5 cells/3.5 cm dish) were propagated in the presence of DMSO (i.e., control) or PN6 (1 or 2 μM) until senescence (Day 41), and the cell numbers in each passage were recorded to generate a growth curve that represented the cumulative population doubling. The population doubling levels (PDLs) of HUVECs were calculated in every culture to indicate the proliferation capacity of HUVECs under the respective conditions. The population doublings (PDs) were estimated using the equation: PDL=3.32 (log (total viable cells at harvest/total viable cells at seeding). Also, HUVECs at passages PDL4 and PDL11 cultured in 0 μM (i.e., DMSO alone), 1 μM, or 2 μM PN6 were harvested for further analyses (e.g., western blot and SA-β-gal staining).
# aged C57BL/6J mice [2] = test: Rearing behavior; type: in vivo, mouse; settings: long-term (111 weeks of age), old-aged mice; FIG. 4D
# Description: The rearing behavior of the male C57BL/6J mice fed a standard rodent chow with or without 50 mg/kg PN6 for 22 weeks (at 72 weeks of age; mid-term) or for 61 weeks (at 111 weeks of age; long-term) was analyzed using the OxyletPro System, in which the mice were housed individually in metabolic cages that were equipped with infrared light beam frames surrounding them. Mid-term: SD, n=16; PN6, n=8; long-term: SD, n=12; PN6, n=8.
# aged C57BL/6J mice [3] = test: Glucose tolerance; type: in vivo, mouse; settings: between the two treatment groups; data not shown
# p21 = p21 expression in HUVECs, western blot; type: cell-based, human; settings: HUVECs at PDL11, 1 or 2 μM; FIG. 3B
# Description: as §1
# Cells were harvested with a 1.25× Laemmli buffer and lysed in RIPA lysis buffer containing 1% of Triton X-100 and a protease inhibitor cocktail, and total protein concentrations were measured with a protein assay kit. Proteins in the samples of the lysates with the same amounts of total protein were separated by sodium dodecyl sulfate polyacrylamide gel electrophoresis (SDS-PAGE) (10% polyacrylamide gels) and analyzed by immunoblotting. […] Protein quantification was performed by software.
compound,measurement,setting,value
"CCC(CC[C@@H](C)C1CCC2C3CC(=O)[C@H]4C[C@@H](O)CC[C@]4(C)C3CC[C@@]21C)C(C)C (stereo in doubt) [PN6, (24S)-3β-hydroxy-5α-stigmastan-6-one]",extension of lifespan of sir2Δfob1Δ mutant strain,[1],unable to extend the lifespan
same,viability of yeast ZHY2,yeast MEP strain ZHY2,increased proportionally with the concentration of PN6
same,SIRT1 activity,SIR2/SIRT1,directly increase the SIRT1 activity
same,population doubling level (PDL) of HUVECs,HUVECs,increase the PDL
same,rearing behavior (exploratory activity),aged C57BL/6J mice [2],increase the exploratory activity
same,glucose tolerance,aged C57BL/6J mice [3],no significant differences
same,p21 expression level,p21,decreased dose-dependently
